Columns and labels:
[1] = test system: salivary glands; assay: Salivary gland NIR fluorescence imaging (FLARE); format: in vivo; conditions: 25 g male mouse, 25 nmol intravenously, 4 hours; Channel 1 (700 nm) or Channel 2 (800 nm)
Method: (§1) Absorbance and fluorescence emission spectra were measured using fiber optic HR2000 absorbance (200-1100 nm) and USB2000FL fluorescence (350-1000 nm) spectrometers (Ocean Optics, Dunedin, Fla.). Excitation was provided by a 532 nm green laser pointer (Opcom Inc., Xiamen, China) set to 5 mW, a 655 nm red laser pointer (Opcom Inc., Xiamen, China) set to 5 mW, or a 770 nm NIR laser diode light source (Electro Optical Components, Santa Rosa, Calif.) set to 10 mW and coupled through a 300 μm core diameter, NA 0.22 fiber (Fiberguide Industries, Stirling, N.J.). In silico calculations of the partition coefficient (log D at pH 7.4) and surface molecular charge and hydrophobicity were calculated using MarvinSketch 5.2.1 by taking major microspecies at pH 7.4 (ChemAxon, Budapest, Hungary). NIR Fluorescence Imaging System The dual-NIR channel FLARE′ imaging system has been described in detail previously (26-28). […] Color and two independent NIR fluorescence emission images (≈700 nm for Channel 1 and ≈800 nm for Channel 2) were acquired simultaneously with custom software at rates up to 15 Hz over a 15 cm diameter field of view. NIR fluorescence from Channel 1 was pseudo-colored in red and NIR fluorescence from Channel 2 was pseudo-colored in lime green prior to merger with the color video image. […] Animal Models and Intraoperative NIR Fluorescence Imaging […]

[2] = test system: ureters; assay: Ureter NIR fluorescence imaging (FLARE); format: in vivo; conditions: 35 kg female pig, 5 μmol intravenously, waiting period 30 min, imaged over next 4 hours; Channel 1 (700 nm) or Channel 2 (800 nm)
Method: as §1

[3] = test system: seminal vesicle; assay: Seminal vesicle NIR fluorescence imaging (FLARE); format: in vivo; conditions: 25 g male mouse, 25 nmol intravenously, 4 hours; Channel 1 (700 nm) or Channel 2 (800 nm)
Method: as §1

[4] = test system: stem cells; assay: Stem cell tracking: NIR fluorescence microscopy of labelled cells; format: cell-based; conditions: 2 μM, 30 min incubation at 37° C., fixed in 2% paraformaldehyde, 10 μm sections; fluorescence microscope Channel 1 (700 nm) or Channel 2 (800 nm)
[5] = test system: choroid plexus; assay: Choroid plexus NIR fluorescence imaging (FLARE); format: in vivo; conditions: 25 g male mouse, 25 nmol intravenously, 4 hours; Channel 1 (700 nm) or Channel 2 (800 nm)
Method: as §1

[6] = test system: thyroid; assay: Thyroid NIR fluorescence imaging (FLARE); format: in vivo; conditions: 35 kg female pig, 5 μmol intravenously, 4 hours; Channel 1 (700 nm) or Channel 2 (800 nm)
Method: as §1

[7] = test system: parathyroid; assay: Parathyroid NIR fluorescence imaging (FLARE); format: in vivo; conditions: 35 kg female pig, 5 μmol intravenously, 4 hours; Channel 1 (700 nm) or Channel 2 (800 nm)
Method: as §1

[8] = test system: pancreas; assay: Pancreas NIR fluorescence imaging (FLARE); format: in vivo; conditions: 35 kg female pig, 5 μmol intravenously, 4 hours; Channel 1 (700 nm) or Channel 2 (800 nm)
Method: as §1

[9] = test system: thoracic duct; assay: Thoracic duct NIR fluorescence imaging (FLARE); format: in vivo; conditions: 35 kg female pig, 5 μmol subcutaneously into the lower leg, 30 minutes; Channel 1 (700 nm) or Channel 2 (800 nm)
Method: as §1

[10] = test system: bile duct; assay: Bile duct NIR fluorescence imaging (FLARE); format: in vivo; conditions: 35 kg female pig, 5 μmol intravenously, 4 hours; Channel 1 (700 nm) or Channel 2 (800 nm)
Method: as §1

[11] = test system: pan lymph nodes; assay: Pan lymph node NIR fluorescence imaging (FLARE); format: in vivo; conditions: 250 g male rat, 20 nmol intravenously, 4 hours; Channel 1 (700 nm) or Channel 2 (800 nm)
Method: as §1

[12] = test system: brown fat; assay: Brown adipose tissue NIR fluorescence imaging (FLARE); format: in vivo; conditions: 25 g male mouse, 25 nmol intravenously, 4 hours; Channel 1 (700 nm) or Channel 2 (800 nm)
Method: as §1

[13] = test system: adrenal; assay: Adrenal NIR fluorescence imaging (FLARE); format: in vivo; conditions: 35 kg female pig, 5 μmol intravenously, 4 hours; Channel 1 (700 nm) or Channel 2 (800 nm)
Method: as §1

[14] = test system: ovaries; assay: Ovary NIR fluorescence imaging (FLARE); format: in vivo; conditions: 25 g female mouse, 25 nmol intravenously, 4 hours; Channel 1 (700 nm) or Channel 2 (800 nm)
Method: as §1

[15] = test system: white adipose tissue; assay: White adipose tissue NIR fluorescence imaging (FLARE); format: in vivo; conditions: 25 g male mouse, 25 nmol intravenously, 4 hours; Channel 1 (700 nm) or Channel 2 (800 nm)
Method: as §1

[16] = test system: CSF; assay: CSF NIR fluorescence imaging (FLARE); format: in vivo; conditions: 35 kg female pig, 5 μmol intravenously, 4 hours; Channel 1 (700 nm) or Channel 2 (800 nm)
Method: as §1

[17] = test system: pituitary gland; assay: Pituitary gland NIR fluorescence imaging (FLARE); format: in vivo; conditions: 25 g male mouse, 25 nmol intravenously, 4 hours; Channel 1 (700 nm) or Channel 2 (800 nm)
Method: as §1

[18] = test system: spleen; assay: Spleen NIR fluorescence imaging (FLARE); format: in vivo; conditions: 25 g male mouse, 25 nmol intravenously, 4 hours; Channel 1 (700 nm) or Channel 2 (800 nm)
Method: as §1

[19] = test system: brain grey matter; assay: Brain grey matter NIR fluorescence imaging (FLARE); format: in vivo; conditions: 25 g male mouse, 25 nmol intravenously, 4 hours; Channel 1 (700 nm) or Channel 2 (800 nm)
Method: as §1

[20] = test system: gallbladder; assay: Gallbladder NIR fluorescence imaging (FLARE); format: in vivo; conditions: 25 g male mouse, 25 nmol intravenously, 4 hours; Channel 1 (700 nm) or Channel 2 (800 nm)
Method: as §1

CNCCCN1/C(=C/C=C/C=C/c2sc3ccccc3[n+]2CCCNC)Sc2ccccc21 [ZK211] was tested, and the “NIR fluorescence contrast of the salivary glands” value [1] was “highlighted with high contrast”.
In the case of CC1(C)C(/C=C/C(=C/C=C2/N(CCC[N+](C)(C)C)c3ccc(S(=O)(=O)O)cc3C2(C)C)Oc2ccc(CCC(=O)O)cc2)=[N+](CCC[N+](C)(C)C)c2ccc(S(=O)(=O)O)cc21 [LN15], the “NIR fluorescence contrast of the ureter” value [2] was “highlighted with high contrast”.
In the case of CC1(C)C(/C=C/C2=C(NCCc3ccc(N)cc3)C(=C/C=C3/N(CCC[N+](C)(C)C)c4ccc(S(=O)(=O)O)cc4C3(C)C)/CCC2)=[N+](CCC[N+](C)(C)C)c2ccc(S(=O)(=O)O)cc21 [LN65], the “NIR fluorescence contrast of the seminal vesicle” value [3] was “highlighted with high contrast”.
CCN1/C(=C/C=C2\CCCC(/C=C/C3=[N+](CC)c4ccccc4C3(C)C)=C2Oc2ccc(CCN)cc2)C(C)(C)c2ccccc21 [PS126] was tested, and the “NIR fluorescence contrast of the cytoplasm of cell” value [4] was “highlighted with high contrast”.
With CN1/C(=C/C=C/C=C/c2sc3ccccc3[n+]2C)Sc2ccccc21 [SP28] the “NIR fluorescence contrast of the choroid plexus” value [5] was “highlighted with high contrast”.
In the case of CN1/C(=C/C=C/C=C/C2=[N+](C)c3ccc(F)cc3C2(C)C)C(C)(C)c2cc(F)ccc21 [T14], the “NIR fluorescence contrast of the thyroid” value [6] was “highlighted with high contrast”, the “NIR fluorescence contrast of the parathyroid” value [7] was “highlighted with high contrast” and the “NIR fluorescence contrast of the pancreas” value [8] was “highlighted with high contrast”.
In the case of CN1\C(=C/C=C/C=C/C2=[N+](C)c3cc4c(cc3C2(C)C)OCO4)C(C)(C)c2cc3c(cc21)OCO3 [NRB1], the “NIR fluorescence contrast of the salivary glands” value [1] was “highlighted with high contrast”.
With CC1(C)C(/C=C/C(Br)=C/C=C2/N(CCC[N+](C)(C)C)c3ccc(S(=O)(=O)O)cc3C2(C)C)=[N+](CCC[N+](C)(C)C)c2ccc(S(=O)(=O)O)cc21 [A106] the “NIR fluorescence contrast of the thoracic duct” value [9] was “highlighted with high contrast” and the “NIR fluorescence contrast of the bile duct” value [10] was “highlighted with high contrast”.
In the case of CC1(C)C(/C=C/C(Br)=C/C=C2/N(CCC[N+](C)(C)C)c3ccc(Br)cc3C2(C)C)=[N+](CCC[N+](C)(C)C)c2ccc(Br)cc21 [A150], the “NIR fluorescence contrast of all lymph nodes” value [11] was “highlighted with high contrast”.
CCCCN1/C(=C/C=C/C=C/c2sc3ccccc3[n+]2CCCC)Sc2ccccc21 [SP30] was tested, and the “NIR fluorescence contrast of the brown fat” value [12] was “highlighted with high contrast”.
With CN1/C(=C/C=C/C=C/C=C/c2sc3ccccc3[n+]2C)Sc2ccccc21 [ZK208] the “NIR fluorescence contrast of the choroid plexus” value [5] was “highlighted with high contrast”.
For CCCCN1/C(=C/C=C/C=C/C=C/C2=[N+](CCCC)c3ccccc3C2(C)C)C(C)(C)c2ccccc21 [AL27], the “NIR fluorescence contrast of the adrenal” value [13] was “highlighted with high contrast” and the “NIR fluorescence contrast of the ovaries” value [14] was “highlighted with high contrast”.
In the case of CCCCN1/C(=C/C=C/C=C/C=C/C2=[N+](CCCC)c3ccc(Cl)cc3C2(C)C)C(C)(C)c2cc(Cl)ccc21 [AH34], the “NIR fluorescence contrast of the white adipose tissue” value [15] was “highlighted with high contrast”.
In the case of CCN1/C(=C/C=C(/C=C/C2=[N+](CC)c3ccccc3C2(C)C)Oc2ccc(CCN)cc2)C(C)(C)c2ccccc21 [PS127], the “NIR fluorescence contrast of the cytoplasm of cell” value [4] was “highlighted with high contrast”.
With CN(C)CCCN1/C(=C/C=C/C=C/c2sc3cc(O)ccc3[n+]2CCCN(C)C)Sc2cc(O)ccc21 [SP66] the “NIR fluorescence contrast of the CSF” value [16] was “highlighted with high contrast”.
For CN1/C(=C/C=C/C=C/C=C/C2=[N+](C)c3ccc(Br)cc3C2(C)C)C(C)(C)c2cc(Br)ccc21 [QBN1], the “NIR fluorescence contrast of the brown fat” value [12] was “highlighted with high contrast”.
In the case of CCN1/C(=C/C=C/C=C/c2sc3cc(C)ccc3[n+]2CC)Sc2cc(C)ccc21 [SP60], the “NIR fluorescence contrast of the pituitary gland” value [17] was “highlighted with high contrast”.
With CC1(C)C(/C=C/C=C/C=C2/N(CCCc3ccccc3)c3ccc4ccccc4c3C2(C)C)=[N+](CCCc2ccccc2)c2ccc3ccccc3c21 [E16] the “NIR fluorescence contrast of the adrenal” value [13] was “highlighted with high contrast”.
For CC1(C)C(/C=C/C2=C(Sc3ccc(CC(=O)O)cc3)C(=C/C=C3/N(CCC[N+](C)(C)C)c4ccc(S(=O)(=O)O)cc4C3(C)C)/CCC2)=[N+](CCC[N+](C)(C)C)c2ccc(S(=O)(=O)O)cc21 [CNN2], the “NIR fluorescence contrast of the seminal vesicle” value [3] was “highlighted with high contrast”.
COc1ccc2c(c1)C(C)(C)C(/C=C/C=C/C=C/C=C1/N(C)c3ccc(OC)cc3C1(C)C)=[N+]2C [AL22] was tested, and the “NIR fluorescence contrast of the pituitary gland” value [17] was “highlighted with high contrast” and the “NIR fluorescence contrast of the pancreas” value [8] was “highlighted with high contrast”.
CN1/C(=C/C=C/C=C/C=C/C2=[N+](C)c3ccc(F)cc3C2(C)C)C(C)(C)c2cc(F)ccc21 [QBN14] was tested, and the “NIR fluorescence contrast of the thyroid” value [6] was “highlighted with high contrast” and the “NIR fluorescence contrast of the parathyroid” value [7] was “highlighted with high contrast”.
With CC1(C)C(/C=C/C2=C(c3ccc(CCC(=O)O)cc3)C(=C/C=C3/N(CCC[N+](C)(C)C)c4ccc(S(=O)(=O)O)cc4C3(C)C)/CCC2)=[N+](CCC[N+](C)(C)C)c2ccc(S(=O)(=O)O)cc21 [A71] the “NIR fluorescence contrast of the ureter” value [2] was “highlighted with high contrast”.
With CC1(C)C(/C=C/C=C/C=C/C=C2/N(CCCc3ccccc3)c3ccccc3C2(C)C)=[N+](CCCc2ccccc2)c2ccccc21 [AL29] the “NIR fluorescence contrast of the spleen” value [18] was “highlighted with high contrast”.
With CC1(C)C(/C=C/C(Br)=C/C=C2/N(CCCc3ccccc3)c3ccc4ccccc4c3C2(C)C)=[N+](CCCc2ccccc2)c2ccc3ccccc3c21 [E24] the “NIR fluorescence contrast of the spleen” value [18] was “highlighted with high contrast”.
With CCCC[N+]1=C(/C=C/C=C/C=C/C=C2/N(C)c3ccccc3C2(C)C)C(C)(C)c2cc(OC)ccc21 [ZK189] the “NIR fluorescence contrast of the brain grey matter” value [19] was “highlighted with high contrast”.
For CCN(CC)c1ccc2nc3ccc(=[N+](CC)CC)cc-3oc2c1 [WuA96], the “NIR fluorescence contrast of the brain grey matter” value [19] was “highlighted with high contrast”.
In the case of CCN(CC)c1ccc(/C=C/C2=CC(/C=C/c3ccc(N(CC)CC)cc3)=[O+][B-](F)(F)O2)cc1 [PS31], the “NIR fluorescence contrast of the white adipose tissue” value [15] was “highlighted with high contrast”.
In the case of CN1/C(=C/C2=CC3=C/C(=C/c4sc5cc(O)ccc5[n+]4C)CCC3CC2)Sc2cc(O)ccc21 (stereo not drawn) [ZK198], the “NIR fluorescence contrast of the gallbladder” value [20] was “highlighted with high contrast”, the “NIR fluorescence contrast of the thoracic duct” value [9] was “highlighted with high contrast” and the “NIR fluorescence contrast of the bile duct” value [10] was “highlighted with high contrast”.

Reference: patent US11077210B2, “Near-infrared fluorescent contrast bioimaging agents and methods of use thereof” (Beth Israel Deaconess Medical Center, priority 2013, dated 2021)
